# According to PubChem BioAssay AID652121 (NMMLSC, 2013):
# Activity calls are given as the source filed them.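 The calls were made as follows: active = at least 15% of live cells showing both differentiation markers at top dose, and half-maximal dose below 10 µM; inactive = the rest.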
# Assays:
# [1] = GFP+/MAC1+ double-positive induction in arrested progenitors – HOXA9ER cells, flow cytometry, Powder Set01 subset01, dose response (AID 652121); details: ER-HoxA9 myeloid progenitors, GFP+/MAC1+ differentiation flow cytometry; at 10 µM (top of the series)
# [2] = tested on: ER-HoxA9 myeloid progenitors, GFP+/MAC1+ differentiation flow cytometry; assay: as above
EC50 [2],SMILES,percent double positive differentiation [1]
,O=C(O)c1cccnc1Nc1ccc(Cl)cc1,28.8% (inactive)
1830 nM,Cc1ccc(Nc2nc(=O)c3cccnc3s2)c(Br)c1,
,O=C(CCNC(=O)c1ccc(Cl)cc1)NC1CCCc2ccccc21 (stereo not drawn),44% (inactive)
